Where “and” joins values, the source holds several entries; their conditions need not be identical. Equal entries are not always repeated.
Test system: human primary hepatocytes
Test: Metabolic disposition of [^14C]-Compound 1 and [^14C]-2′-C-methyl guanosine in human primary hepatocytes (incubation medium, cellular extracts, nucleotide levels)
Type: in vitro ADME
Description: Primary hepatocytes: Freshly isolated cells from animal and human liver were obtained in suspension on ice. Cells were pelleted by centrifugation at 70-75×g (rat) or 95-90×g (monkey and human) and resuspended at 0.8 million cells per mL of platting medium (William's E supplemented with 5% FBS, 0.5% penicillin-streptomycin, 1% L-glutamine, 4 μg/mL insulin and 1 μM dexamethasone). Multi-well collagen I-coated plates (rat tail collagen type I; 12- or 6-well) were then seeded by addition of 1 mL (12-well; 0.8 million cells/well) or 2 mL (6-well; 1.6 million cells/well) of cell suspension. The plates were gently shaken to evenly distribute the cells and placed in an incubator at 37° C. for approximately 4 to 6 hours to allow cells to attach. Once cells were attached, the platting medium was removed and replaced with hepatocyte culture medium (William's E supplemented with penicillin-streptomycin, 1% L-glutamine, 1% insulin-transferrin-selenium and 0.1 μM dexamethasone). Cells were left overnight in an incubator at 37° C. to acclimatize to culture and the medium.
Hepatocyte incubations with radiolabeled Compound 1 and 2′-C-methyl guanosine, both labeled in the C-8 position of the guanine moiety, were conducted at a final volume of 2.0 mL hepatocyte culture medium/well ([…]). Culture medium from overnight incubation of cells was removed and replaced with fresh medium, pre-warmed to 37° C., containing 1 or 10 μM [^14C]-Compound 1 ([…]) or [^14C]-2′-C-methyl guanosine (127 DPM/μmol) from a stock solution in DMSO (final DMSO concentration was 0.1%) or 50% ethanol (final ethanol concentration was 0.2%). After 1, 4, 8 and 24 hours, 0.5-1.0 mL of incubation medium was removed and stored at −20° C. until analysis (described below). The remaining medium was discarded and cell monolayers were carefully washed two times with ice-cold PBS. Following the last wash, all PBS was carefully removed and 1.0 mL of extraction solution (ice-cold 70% methanol) added. Cells were scrapped off and suspended in the extraction solution, transferred to 2 mL polypropylene microfuge tubes and intracellular contents extracted overnight at −20° C.
Preliminary identification of putative metabolites was conducted by comparing the retention time of observed metabolites in incubation medium and cellular extracts with retention times obtained with chemically synthesized standards using the chromatography conditions described below. Further identification of 2′-C-methyl guanosine nucleotides (mono-, di- and triphosphate) was carried out by incubating cellular extract samples with alkaline phosphatase (10 units for 60 min at 37° C.) and comparing the HPLC retention times of the resulting nucleosides with that of authentic 2′-C-methyl guanosine.
Cellular extracts were prepared by centrifugation at 16,000 RCF using an Eppendorf microcentrifuge (Eppendorf, Model 5415D) for 10 min to remove cellular debris. An aliquot of 5-10 μL of the supernatant was added to 5 mL of EcoLite™ (MP, Irvine, Calif.) liquid scintillation cocktail and radioactivity measured by liquid scintillation counting (LSC) using a Beckman Coulter LS6500 multipurpose liquid scintillation counter (Beckman Instruments, Fullerton, Calif.). The remaining sample was then dried using a Labconco refrigerated centrivap concentrator (Labconco, Kansas City, Mo.). Dry extracts were reconstituted in 120 μL of HPLC-grade water and centrifuged at 16,000 RCF using an Eppendorf microcentrifuge for 10 min. Prior to HPLC analysis (described below), radioactivity of the concentrated extracts was measured by LSC using 5 μL aliquots. Extraction recovery was then determined by comparing total radioactivity in extracts before and after drying. The remaining extract was then analyzed by HPLC with online radioactivity detection using a Flow Scintillation Analyzer Radiomatic™ 515TR. Radioactivity in the separated components was quantified by integrating the peaks using Flo-One™ Software (Perkin Elmer Life Sciences). […]

[1] = human hepatocytes (Hu775), 1 μM [^14C]-Compound 1, 0 h
[2] = human hepatocytes (Hu775), 1 μM [^14C]-Compound 1, 1 h
[3] = human hepatocytes (Hu775), 1 μM [^14C]-Compound 1, 8 h
[4] = human hepatocytes (Hu775), 1 μM [^14C]-Compound 1, 24 h
[5] = human hepatocytes Hu775, 1 μM [^14C]-2′-C-methyl guanosine, 1 h
[6] = human hepatocytes Hu775, 1 μM [^14C]-2′-C-methyl guanosine, 8 h
[7] = human hepatocytes Hu775, 1 μM [^14C]-2′-C-methyl guanosine, 24 h

`C[C@@]1(O)[C@H](O)[C@@H](COP(=O)(O)O)O[C@H]1n1cnc2c(=O)[nH]c(N)nc21` [Compound 5, [(2R)-2-methyl-β-D-ribofuranosyl]guanine 5′-monophosphate] was tested, and the “metabolites observed in cellular extracts (% of total radioactivity)” value (human hepatocytes (Hu759, Hu775), 10 μM [^14C]-2′-C-methyl guanosine, 8 h) was 1.89% and 1.11%, the “metabolites observed in cellular extracts (% of total radioactivity)” value (human hepatocytes (Hu759, Hu775), 10 μM [^14C]-2′-C-methyl guanosine, 24 h) was 3.82% and 3.41% and the “metabolites observed in cellular extracts (% of total radioactivity)” value (human hepatocytes (Hu759, Hu775), 10 μM [^14C]-Compound 1, 1 h) was 6.44% and 8.77%. The “metabolites observed in cellular extracts (% of total radioactivity)” value (human hepatocytes (Hu759, Hu775), 10 μM [^14C]-Compound 1, 4 h) was 5.70% and 5.54%, the “metabolites observed in cellular extracts (% of total radioactivity)” value (human hepatocytes (Hu759, Hu775), 10 μM [^14C]-Compound 1, 8 h) was 7.99% and 4.44% and the “metabolites observed in cellular extracts (% of total radioactivity)” value (human hepatocytes (Hu759, Hu775), 10 μM [^14C]-Compound 1, 24 h) was 5.38% and 12.8%. For the same compound, the “2′-C-methyl guanosine nucleotide levels in cellular extracts” value (“2′-C-methyl guanosine nucleotide levels” below) [1] was “BLD^a (BLD = below limit of detection (0.02 pmol/million cells))”, the “metabolites observed in medium (% of total radioactivity)” value [1] was “BLD” and the “2′-C-methyl guanosine nucleotide levels” value [2] was 2.40 pmol/million cells. For the same compound, the “metabolites observed in cellular extracts (% of total radioactivity)” value [2] was 5.45%, the “metabolites observed in medium (% of total radioactivity)” value [2] was “BLD” and the “2′-C-methyl guanosine nucleotide levels” value [3] was 2.10 pmol/million cells. For the same compound, the “metabolites observed in cellular extracts (% of total radioactivity)” value [3] was 3.60%, the “metabolites observed in medium (% of total radioactivity)” value [3] was 10.4% and the “2′-C-methyl guanosine nucleotide levels” value [4] was 5.80 pmol/million cells. For the same compound, the “metabolites observed in cellular extracts (% of total radioactivity)” value [4] was 6.41%, the “metabolites observed in medium (% of total radioactivity)” value [4] was 8% and 8.29% and the “metabolites observed in medium (% of total radioactivity)” value (human hepatocytes (lots Hu759, Hu775), 10 μM [^14C]-Compound 1, 0 h) was “BLD”. The “metabolites observed in medium (% of total radioactivity)” value (human hepatocytes (lots Hu759, Hu775), 10 μM [^14C]-Compound 1, 1 h) was 4.4% and 0.5%, the “metabolites observed in medium (% of total radioactivity)” value (human hepatocytes (lots Hu759, Hu775), 10 μM [^14C]-Compound 1, 4 h) was 3.9% and 4.5% and the “metabolites observed in medium (% of total radioactivity)” value (human hepatocytes (lots Hu759, Hu775), 10 μM [^14C]-Compound 1, 8 h) was 5.1% and 7.2%. The “metabolites observed in medium (% of total radioactivity)” value (human hepatocytes (lots Hu759, Hu775), 10 μM [^14C]-Compound 1, 24 h) was 4.7% and 7.1%, the “2′-C-methyl guanosine nucleotide levels” value (human hepatocytes Hu759, 10 μM [^14C]-2′-C-methyl guanosine, 0 h) was 0 pmol/million cells and the “2′-C-methyl guanosine nucleotide levels” value (human hepatocytes Hu759, 10 μM [^14C]-2′-C-methyl guanosine, 1 h) was “BLD^a (BLD = below limit of detection (0.02 pmol/million cells))”. For the same compound, the “2′-C-methyl guanosine nucleotide levels” value (human hepatocytes Hu759, 10 μM [^14C]-2′-C-methyl guanosine, 4 h) was “BLD (BLD = below limit of detection (0.02 pmol/million cells))”, the “2′-C-methyl guanosine nucleotide levels” value (human hepatocytes Hu759, 10 μM [^14C]-2′-C-methyl guanosine, 8 h) was 9.00 pmol/million cells and the “2′-C-methyl guanosine nucleotide levels” value (human hepatocytes Hu759, 10 μM [^14C]-2′-C-methyl guanosine, 24 h) was 23.0 pmol/million cells. For the same compound, the “2′-C-methyl guanosine nucleotide levels” value (human hepatocytes Hu759, 10 μM [^14C]-Compound 1, 0 h) was 0 pmol/million cells, the “2′-C-methyl guanosine nucleotide levels” value (human hepatocytes Hu759, 10 μM [^14C]-Compound 1, 1 h) was 4.00 pmol/million cells and the “2′-C-methyl guanosine nucleotide levels” value (human hepatocytes Hu759, 10 μM [^14C]-Compound 1, 4 h) was 15.0 pmol/million cells. For the same compound, the “2′-C-methyl guanosine nucleotide levels” value (human hepatocytes Hu759, 10 μM [^14C]-Compound 1, 8 h) was 25.0 pmol/million cells, the “2′-C-methyl guanosine nucleotide levels” value (human hepatocytes Hu759, 10 μM [^14C]-Compound 1, 24 h) was 28.0 pmol/million cells and the “2′-C-methyl guanosine nucleotide levels” value (human hepatocytes Hu775, 1 μM [^14C]-2′-C-methyl guanosine, 0 h) was “BLD (BLD = below limit of detection (0.02 pmol/million cells))”. The “2′-C-methyl guanosine nucleotide levels” value [5] was “BLD (BLD = below limit of detection (0.02 pmol/million cells))”, the “Major metabolites observed in cellular extracts (% of total radioactivity)” value [5] was “BLD^a (BLD = below limit of detection (30 DPM))” and the “2′-C-methyl guanosine nucleotide levels” value [6] was “BLD (BLD = below limit of detection (0.02 pmol/million cells))”. For the same compound, the “Major metabolites observed in cellular extracts (% of total radioactivity)” value [6] was “BLD (BLD = below limit of detection (30 DPM))”, the “2′-C-methyl guanosine nucleotide levels” value [7] was 1.50 pmol/million cells and the “Major metabolites observed in cellular extracts (% of total radioactivity)” value [7] was 3.39 % of total radioactivity. For the same compound, the “2′-C-methyl guanosine nucleotide levels” value (human hepatocytes Hu775, 10 μM [^14C]-2′-C-methyl guanosine, 0 h) was 0 pmol/million cells, the “2′-C-methyl guanosine nucleotide levels” value (human hepatocytes Hu775, 10 μM [^14C]-2′-C-methyl guanosine, 1 h) was 2.80 pmol/million cells and the “2′-C-methyl guanosine nucleotide levels” value (human hepatocytes Hu775, 10 μM [^14C]-2′-C-methyl guanosine, 4 h) was 4.00 pmol/million cells. The “2′-C-methyl guanosine nucleotide levels” value (human hepatocytes Hu775, 10 μM [^14C]-2′-C-methyl guanosine, 8 h) was 4.90 pmol/million cells, the “2′-C-methyl guanosine nucleotide levels” value (human hepatocytes Hu775, 10 μM [^14C]-2′-C-methyl guanosine, 24 h) was 16.0 pmol/million cells and the “2′-C-methyl guanosine nucleotide levels” value (human hepatocytes Hu775, 10 μM [^14C]-Compound 1, 0 h) was 0 pmol/million cells. For the same compound, the “2′-C-methyl guanosine nucleotide levels” value (human hepatocytes Hu775, 10 μM [^14C]-Compound 1, 1 h) was 10.3 pmol/million cells, the “2′-C-methyl guanosine nucleotide levels” value (human hepatocytes Hu775, 10 μM [^14C]-Compound 1, 4 h) was 17.1 pmol/million cells and the “2′-C-methyl guanosine nucleotide levels” value (human hepatocytes Hu775, 10 μM [^14C]-Compound 1, 8 h) was 21.9 pmol/million cells. For the same compound, the “2′-C-methyl guanosine nucleotide levels” value (human hepatocytes Hu775, 10 μM [^14C]-Compound 1, 24 h) was 121 pmol/million cells.
